Data set [1] in a line: Artificial lipid membrane permeability measurement (96-well filter plate, absorbance). The class given is in vitro ADME. Further details: Permeability coefficient (P), Example 2 / Permeability coefficient (P), Comparative Example 1: unit: cm/s. The note with it: 0.5 mmol/L sample; for Papp at 0.5 mmol/L: PAMPA; for Permeability coefficient (P), Comparative Example 1: membrane of Comparative Example 1 (phosphatidylcholine, cholesterol and 1,9-decadiene 2:1:97).

For data set [2] the following is noted: literature data, References *1 to *4; cited from earlier work.
[3] abbreviates: membrane of Example 1 (phosphatidylcholine 2, cholesterol 1, stearic acid 0.2 %, w/w in 1,7-octadiene), pH 7.0, read-out: Permeability coefficient (P), Example 1.
[4] abbreviates: membrane of Example 2 (phosphatidylcholine 0.75, phosphatidylethanolamine 0.75, phosphatidylserine 0.25, phosphatidylinositol 0.25, cholesterol 1 %, w/w in 1,7-octadiene), pH 6.5.
Where [5] appears, read: membrane of Example 2 (phosphatidylcholine 0.75, phosphatidylethanolamine 0.75, phosphatidylserine 0.25, phosphatidylinositol 0.25, cholesterol 1 %, w/w in 1,7-octadiene), pH 6.5, read-out: Permeability coefficient (P), Example 2.
[6] abbreviates: membrane of Example 3 (phosphatidylcholine and 1,6-heptadiene 2:98), buffer pH 6.5 to pH 7.0, read-out: Permeability coefficient (P), Example 3.
Setting [7] is: membrane of Example 4 (phosphatidylcholine and 1,7-octadiene 2:98), buffer pH 6.5 to pH 7.0, read-out: Permeability coefficient (P), Example 4.
[8] abbreviates: membrane of Example 5 (phosphatidylcholine and 1,8-nonadiene 2:98), buffer pH 6.5 to pH 7.0, read-out: Permeability coefficient (P), Example 5.
Where [9] appears, read: membrane of Comparative Example 2 (phosphatidylcholine and 1,9-decadiene 2:98), buffer pH 6.5 to pH 7.0, read-out: Permeability coefficient (P), Comparative Example 2.

Like-named read-outs stand apart in the source and are kept apart here. Marks after values point to notes of the source that are not given here.

For the compound `CC(C)NCC(O)COc1cccc2[nH]ccc12` (stereo not shown) [Pindolol], the Papp at 0.5 mmol/L in data set [1] (setting [3]) was 11 ×10⁻⁶ cm/s. Further, in data set [1] (pH 6.5), the “Permeability coefficient (P), Comparative Example 1” value was 2.71E-08. Moreover, in data set [1] (setting [4]), the “Permeability coefficient (P), Example 2” value stood at 7.94E-06. Further, the “Human intestinal absorption (Fa, %)” value in data set [2] is reported as 90*^1%.

As for `CC(=O)Nc1ccc(OCC(O)CNC(C)C)cc1` (stereo not shown) [Practolol], in data set [1] (setting [3]), the Papp at 0.5 mmol/L was found to be 1.01 ×10⁻⁶ cm/s. In addition, in data set [1] (pH 6.5), the “Permeability coefficient (P), Comparative Example 1” value was 4.36E-07. In addition, in data set [1] (setting [4]), the “Permeability coefficient (P), Example 2” value came to 1.53E-06.

On to `Nc1ccn([C@@H]2O[C@H](CO)[C@@H](O)[C@@H]2O)c(=O)n1` [Cytarabine], for which the Papp at 0.5 mmol/L in data set [1] (setting [3]) amounted to 0.889 ×10⁻⁶ cm/s; in data set [1] (setting [5]), 0.0387 ×10⁻⁶ cm/s. Moreover, the “Permeability coefficient (P), Comparative Example 1” value in data set [1] (pH 6.5) is listed as 3.87E-08.

For the compound `CC(C)(C)NCC(O)COc1cccc2c1CC(O)C(O)C2` (stereo not shown) [Nadolol], the Papp at 0.5 mmol/L in data set [1] (setting [3]) is 3.28 ×10⁻⁶ cm/s. Moreover, in data set [1] (pH 6.5), the “Permeability coefficient (P), Comparative Example 1” value was 5.26E-07. Further, the “Human intestinal absorption (Fa, %)” value in data set [2] is on record as 35*^1%.

Take `CNC(=C[N+](=O)[O-])NCCSCc1ccc(CN(C)C)o1` [Ranitidine]: the Papp at 0.5 mmol/L in data set [1] (setting [3]) is 1.22 ×10⁻⁶ cm/s. For the same compound, the “Permeability coefficient (P), Comparative Example 1” value in data set [1] (pH 6.5) is recorded as 1.34E-07. Further, the “Permeability coefficient (P), Example 2” value in data set [1] (setting [4]) is on record as 2.19E-06.

Turning to `C[C@H]1c2cccc(O)c2C(=O)C2=C(O)[C@]3(O)C(=O)C(C(N)=O)=C(O)[C@@H](N(C)C)[C@@H]3[C@@H](O)[C@@H]21` [Doxycycline], the Papp at 0.5 mmol/L in data set [1] (setting [3]) is 7.07 ×10⁻⁶ cm/s. Also, the “Permeability coefficient (P), Comparative Example 1” value in data set [1] (pH 6.5) came to 1.52E-06. For the same compound, the “Permeability coefficient (P), Example 2” value in data set [1] (setting [4]) was determined as 2.35E-05. The “Human intestinal absorption (Fa, %)” value in data set [2] is listed as 95*^3%.

Take `CC(C)(C)NC[C@H](O)COc1nsnc1N1CCOCC1` [Timolol]: in data set [1] (setting [3]), the Papp at 0.5 mmol/L was found to be 9.13 ×10⁻⁶ cm/s. Moreover, in data set [1] (pH 6.5), the “Permeability coefficient (P), Comparative Example 1” value came to 1.05E-06. The “Permeability coefficient (P), Example 2” value in data set [1] (setting [4]) worked out at 1.19E-05. Besides, in data set [2], the “Human intestinal absorption (Fa, %)” value was 90*^1%.

Turning to `CN(C)[C@@H]1C(O)=C(C(N)=O)C(=O)[C@@]2(O)C(O)=C3C(=O)c4c(O)cccc4[C@@](C)(O)[C@H]3[C@H](O)[C@@H]12` [Oxytetracycline], the Papp at 0.5 mmol/L in data set [1] (setting [3]) was 3.31 ×10⁻⁶ cm/s. The “Permeability coefficient (P), Comparative Example 1” value in data set [1] (pH 6.5) turned out to be 8.31E-07. Besides, in data set [1] (setting [4]), the “Permeability coefficient (P), Example 2” value is 5.87E-06. Moreover, the “Human intestinal absorption (Fa, %)” value in data set [2] was 60*^3%.

Regarding `O=C1CC[C@@]2(O)[C@H]3Cc4ccc(O)c5c4[C@@]2(CCN3CC2CC2)[C@H]1O5` [Naltrexone], in data set [1] (setting [3]), the Papp at 0.5 mmol/L turned out to be 11.2 ×10⁻⁶ cm/s. The “Permeability coefficient (P), Comparative Example 1” value in data set [1] (pH 6.5) turned out to be 9.61E-06. Also, the “Permeability coefficient (P), Example 2” value in data set [1] (setting [4]) worked out at 4.50E-06.

For the compound `CC(C)NCC(O)COc1cccc2ccccc12` (stereo not shown) [Propranolol], the Papp at 0.5 mmol/L in data set [1] (setting [6]) was determined as 43.8 ×10⁻⁶ cm/s; in data set [1] (setting [7]), 21.5 ×10⁻⁶ cm/s; in data set [1] (setting [8]), 24.6 ×10⁻⁶ cm/s; in data set [1] (setting [9]) it was 12.5 ×10⁻⁶ cm/s.

`CC[C@H](C)C(=O)O[C@H]1C[C@H](O)C=C2C=C[C@H](C)[C@H](CC[C@@H](O)C[C@@H](O)CC(=O)O)[C@H]21` [Pravastatin]: the Papp at 0.5 mmol/L in data set [1] (setting [3]) stood at 2.69 ×10⁻⁶ cm/s. Besides, the “Permeability coefficient (P), Comparative Example 1” value in data set [1] (pH 6.5) is listed as 7.21E-08. In addition, the “Permeability coefficient (P), Example 2” value in data set [1] (setting [4]) worked out at 6.12E-07. In data set [2], the “Human intestinal absorption (Fa, %)” value is reported as 34*^1%.

In the case of `CC(C(=O)O)c1cccc(C(=O)c2ccccc2)c1` (stereo not shown) [Ketoprofen], the Papp at 0.5 mmol/L in data set [1] (setting [6]) turned out to be 50.5 ×10⁻⁶ cm/s; in data set [1] (setting [7]), 13.6 ×10⁻⁶ cm/s; in data set [1] (setting [8]), 16.8 ×10⁻⁶ cm/s; in data set [1] (setting [9]), 9.22 ×10⁻⁶ cm/s.

In the case of `CO/N=C(\C(=O)N[C@@H]1C(=O)N2C(C(=O)O)=C(COC(N)=O)CS[C@H]12)c1ccco1` [Cefuroxime], the Papp at 0.5 mmol/L in data set [1] (setting [3]) came out at 0.16 ×10⁻⁶ cm/s; in data set [1] (setting [5]), 0.0443 ×10⁻⁶ cm/s. In addition, in data set [1] (pH 6.5), the “Permeability coefficient (P), Comparative Example 1” value was 2.76E-08. In addition, in data set [2], the “Human intestinal absorption (Fa, %)” value is recorded as 5*^1%.

On to `NS(=O)(=O)c1cc2c(cc1Cl)NCNS2(=O)=O` [Hydrochlorothiazide], for which the Papp at 0.5 mmol/L turned out to be 5.86 ×10⁻⁶ cm/s in data set [1] (setting [6]); 1.52 ×10⁻⁶ cm/s in data set [1] (setting [7]); 1.82 ×10⁻⁶ cm/s in data set [1] (setting [8]); 0.751 ×10⁻⁶ cm/s in data set [1] (setting [9]); 1.34 ×10⁻⁶ cm/s in data set [1] (setting [3]); 1.55 ×10⁻⁶ cm/s in data set [1] (setting [5]). Also, the “Permeability coefficient (P), Comparative Example 1” value in data set [1] (pH 6.5) was found to be 8.64E-07.

For `O=C(O)c1cc(/N=N/c2ccc(S(=O)(=O)Nc3ccccn3)cc2)ccc1O` [Sulfasalazine], the Papp at 0.5 mmol/L in data set [1] (setting [3]) stood at 3.24 ×10⁻⁶ cm/s. Moreover, the “Permeability coefficient (P), Comparative Example 1” value in data set [1] (pH 6.5) is on record as 3.12E-07. Also, in data set [1] (setting [4]), the “Permeability coefficient (P), Example 2” value stood at 1.07E-06. Further, in data set [2], the “Human intestinal absorption (Fa, %)” value was 65*^1%.

As for `NS(=O)(=O)c1cc2c(cc1Cl)N=CNS2(=O)=O` [Chlorothiazide], the Papp at 0.5 mmol/L in data set [1] (setting [3]) was 2.24 ×10⁻⁶ cm/s. Also, the “Permeability coefficient (P), Comparative Example 1” value in data set [1] (pH 6.5) was 4.98E-08. Moreover, the “Permeability coefficient (P), Example 2” value in data set [1] (setting [4]) was 2.71E-07.

`COCCc1ccc(OCC(O)CNC(C)C)cc1` (stereo not shown) [Metoprolol]: in data set [1] (setting [3]), the Papp at 0.5 mmol/L came to 9.42 ×10⁻⁶ cm/s. Also, the “Permeability coefficient (P), Comparative Example 1” value in data set [1] (pH 6.5) worked out at 7.49E-07. In addition, the “Permeability coefficient (P), Example 2” value in data set [1] (setting [4]) is reported as 6.88E-06.

Consider `N=C(N)NC(=O)c1nc(Cl)c(N)nc1N` [Amiloride], for which the Papp at 0.5 mmol/L in data set [1] (setting [3]) turned out to be 2.69 ×10⁻⁶ cm/s. Besides, the “Permeability coefficient (P), Comparative Example 1” value in data set [1] (pH 6.5) is given as 6.10E-08. For the same compound, the “Permeability coefficient (P), Example 2” value in data set [1] (setting [4]) is listed as 6.73E-07. In addition, the “Human intestinal absorption (Fa, %)” value in data set [2] is 50*^3%.

`CC(=O)Nc1ccc(O)cc1` [Acetaminophen]: in data set [1] (setting [3]), the Papp at 0.5 mmol/L is 8.17 ×10⁻⁶ cm/s. Moreover, the “Permeability coefficient (P), Comparative Example 1” value in data set [1] (pH 6.5) was 4.98E-08. In addition, the “Permeability coefficient (P), Example 2” value in data set [1] (setting [4]) is 1.79E-06. In addition, the “Human intestinal absorption (Fa, %)” value in data set [2] is recorded as 80*^1%.

As for `CCCC(=O)Nc1ccc(OCC(O)CNC(C)C)c(C(C)=O)c1` (stereo not shown) [Acebutolol], the Papp at 0.5 mmol/L in data set [1] (setting [3]) came out at 4.45 ×10⁻⁶ cm/s. The “Permeability coefficient (P), Comparative Example 1” value in data set [1] (pH 6.5) came out at 1.91E-07. In data set [1] (setting [4]), the “Permeability coefficient (P), Example 2” value stood at 3.67E-06. The “Human intestinal absorption (Fa, %)” value in data set [2] is listed as 90*^1%.

Regarding `CCN1CCCC1CNC(=O)c1cc(S(N)(=O)=O)ccc1OC` (stereo not shown) [Sulpiride], the Papp at 0.5 mmol/L in data set [1] (setting [3]) came to 1.34 ×10⁻⁶ cm/s. Moreover, the “Permeability coefficient (P), Comparative Example 1” value in data set [1] (pH 6.5) is 8.33E-08. Moreover, the “Permeability coefficient (P), Example 2” value in data set [1] (setting [4]) amounted to 2.23E-06.

With `N=C(N)N/N=C/c1c(Cl)cccc1Cl` [Guanabenz], the Papp at 0.5 mmol/L in data set [1] (setting [3]) is 19.5 ×10⁻⁶ cm/s. In data set [1] (pH 6.5), the “Permeability coefficient (P), Comparative Example 1” value amounted to 4.14E-06. Besides, the “Permeability coefficient (P), Example 2” value in data set [1] (setting [4]) is reported as 1.04E-05. The “Human intestinal absorption (Fa, %)” value in data set [2] was 75*^1%.

With `CO/N=C(\C(=O)N[C@@H]1C(=O)N2C(C(=O)O)=C(CSc3nc(=O)c(=O)[nH]n3C)CS[C@H]12)c1csc(N)n1` [Ceftriaxone], in data set [1] (setting [3]), the Papp at 0.5 mmol/L was 1.37 ×10⁻⁶ cm/s. The “Permeability coefficient (P), Comparative Example 1” value in data set [1] (pH 6.5) came out at 1.66E-08. In addition, the “Permeability coefficient (P), Example 2” value in data set [1] (setting [4]) was 2.25E-07. Besides, in data set [2], the “Human intestinal absorption (Fa, %)” value was 1*^4%.

Turning to `CCOC(=O)[C@H](CCc1ccccc1)N[C@@H](C)C(=O)N1CCC[C@H]1C(=O)O` [Enalapril], the Papp at 0.5 mmol/L in data set [1] (setting [3]) was 0.802 ×10⁻⁶ cm/s; in data set [1] (setting [5]) it was 1.37 ×10⁻⁶ cm/s. Besides, the “Permeability coefficient (P), Comparative Example 1” value in data set [1] (pH 6.5) was determined as 1.09E-06. Further, in data set [2], the “Human intestinal absorption (Fa, %)” value is on record as 65*^3%.

The values above are taken from patent publication US6861260B2, “Lipid membrane, method for measuring membrane permeability, and method for screening” (Chugai Seiyaku Kabushiki Kaisha, priority 2000, dated 2005).
